From patent publication US9593108B2, “Compounds and methods for antiviral treatment” (PTC Therapeutics, Inc., priority 2009, dated 2017)

Columns and labels:
[1] = test system: HCV replicon RNA (GenBank Accession No. AJ242654); assay: HCV Replicon Assay (replicon RNA reduction and/or Fluc reporter signal); format: cell-based, Hepatitis C virus; conditions: Hepatitis C virus, 72 h, replicon-containing cells cultured with test compound for up to 3 days
Summary of the method: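 IC50 values mostly reflect the drop in replicon RNA, though Fluc reporter signal may also be used. Compound incubated with cells carrying the bicistronic replicon for as long as 3 days; interferon served as positive control.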

Compound: Cc1cnc2c(c1)c(C#N)c(-c1ccc(S(=O)(=O)N[C@@H](C)C(F)(F)F)cn1)n2-c1cncs1 [Cpd 430, 6-[3-cyano-5-methyl-1-(1,3-thiazol-5-yl)-1H-pyrrolo[2,3-b]pyridin-2-yl]-N-[(2S)-1,1,1-trifluoropropan-2-yl]pyridine-3-sulfonamide]
- melting point: 176 to 178 °C
- IC50 [1]: < 500 nM

Compound: NC(=O)c1c(-c2ccc(NS(=O)(=O)C3CC3)cc2)n(C2CCCCC2)c2ncc(C(F)(F)F)cc12 [Cpd 448, 1-cyclohexyl-2-{4-[(cyclopropylsulfonyl)amino]phenyl}-5-(trifluoromethyl)-1H-pyrrolo[2,3-b]pyridine-3-carboxamide]
- melting point: 220 to 222 °C
- IC50 [1]: 500 to 2000 nM

Compound: Cc1cnc2c(c1)c(C#N)c(-c1ccc(S(=O)(=O)N[C@@H](C)C(F)(F)F)cn1)n2-c1ccc(F)cc1 [Cpd 503, 6-[3-cyano-1-(4-fluorophenyl)-5-methyl-1H-pyrrolo[2,3-b]pyridin-2-yl]-N-[(2S)-1,1,1-trifluoropropan-2-yl]pyridine-3-sulfonamide]
- melting point: 253 to 254 °C
- IC50 [1]: < 500 nM

Compound: CC1(S(=O)(=O)Nc2ccc(-c3c(C(N)=O)c4cc(C(F)(F)F)cnc4n3C3CCCCC3)cc2)CC1 [Cpd 447, 1-cyclohexyl-2-(4-{[(1-methylcyclopropyl)sulfonyl]amino}phenyl)-5-(trifluoromethyl)-1H-pyrrolo[2,3-b]pyridine-3-carboxamide]
- melting point: 268 to 270 °C
- IC50 [1]: < 500 nM

Compound: CSc1cnc2c(c1)c(C(N)=O)c(-c1ccc(NS(=O)(=O)C(C)(C)C)cc1)n2C1CCC1 [Cpd 387, 2-{4-[(tert-butylsulfonyl)amino]phenyl}-1-cyclobutyl-5-(methylsulfanyl)-1H-pyrrolo[2,3-b]pyridine-3-carboxamide]
- melting point: 240 to 241 °C
- IC50 [1]: < 500 nM

Compound: Cc1cnc2c(c1)c(C#N)c(-c1ccc(S(=O)(=O)N[C@@H](C)C(F)(F)F)cn1)n2CC1CC1 [Cpd 494, 6-[3-cyano-1-(cyclopropylmethyl)-5-methyl-1H-pyrrolo[2,3-b]pyridin-2-yl]-N-[(2S)-1,1,1-trifluoropropan-2-yl]pyridine-3-sulfonamide]
- melting point: 198 to 204 °C
- IC50 [1]: < 500 nM

Compound: NC(=O)c1c(-c2ccc(S(=O)(=O)NC3(C(F)(F)F)CC3)cc2)n(C2CCCCC2)c2ncc(C(F)(F)F)cc12 [Cpd 441, 1-cyclohexyl-5-(trifluoromethyl)-2-(4-{[1-(trifluoromethyl)cyclopropyl]sulfamoyl}phenyl)-1H-pyrrolo[2,3-b]pyridine-3-carboxamide]
- melting point: 303 to 306 °C
- IC50 [1]: < 500 nM

Compound: Cc1cnc2c(C#N)c(-c3ccc(S(=O)(=O)N[C@@H](C)C(F)(F)F)cn3)n(-c3cnccn3)c2c1 [Cpd 463, 6-[3-cyano-6-methyl-1-(pyrazin-2-yl)-1H-pyrrolo[3,2-b]pyridin-2-yl]-N-[(2S)-1,1,1-trifluoropropan-2-yl]pyridine-3-sulfonamide]
- melting point: 288 to 289 °C
- IC50 [1]: < 500 nM

Compound: Cc1cnc2c(C#N)c(-c3ccc(S(=O)(=O)NC(C)(C)C)cn3)n(C3CCC3)c2c1 [Cpd 211, N-tert-butyl-6-(3-cyano-1-cyclobutyl-6-methyl-1H-pyrrolo[3,2-b]pyridin-2-yl)pyridine-3-sulfonamide]
- melting point: 227 to 229 °C
- IC50 [1]: < 500 nM

Compound: Cc1cc(-c2c(C#N)c3cc(C(F)(F)F)cnc3n2C2CCC2)ncc1S(=O)(=O)N[C@@H](C)C(F)(F)F [Cpd 298, 6-[3-cyano-1-cyclobutyl-5-(trifluoromethyl)-1H-pyrrolo[2,3-b]pyridin-2-yl]-4-methyl-N-[(2S)-1,1,1-trifluoropropan-2-yl]pyridine-3-sulfonamide]
- melting point: 166 to 171 °C
- IC50 [1]: < 500 nM

Compound: Cc1cnc2c(c1)c(C#N)c(-c1ccc(S(=O)(=O)N[C@@H](C)C(F)(F)F)cn1)n2-c1ccc(F)cn1 [Cpd 432, 6-[3-cyano-1-(5-fluoropyridin-2-yl)-5-methyl-1H-pyrrolo[2,3-b]pyridin-2-yl]-N-[(2S)-1,1,1-trifluoropropan-2-yl]pyridine-3-sulfonamide]
- melting point: 199 to 200 °C
- IC50 [1]: < 500 nM

Compound: Cc1cnc2c(c1)c(C#N)c(-c1ccc(S(=O)(=O)NC(C)(C)C(F)(F)F)cc1)n2C1CCC1 [Cpd 79, 4-(3-cyano-1-cyclobutyl-5-methyl-1H-pyrrolo[2,3-b]pyridin-2-yl)-N-(1,1,1-trifluoro-2-methylpropan-2-yl)benzenesulfonamide]
- melting point: 180 to 181 °C
- IC50 [1]: < 500 nM

Compound: Cc1cc2c(cn1)c(C#N)c(-c1ncc(S(=O)(=O)NC(C)C)cn1)n2C1CCC1 [Cpd 32, 2-(3-cyano-1-cyclobutyl-6-methyl-1H-pyrrolo[3,2-c]pyridin-2-yl)-N-(propan-2-yl)pyrimidine-5-sulfonamide]
- melting point: 242 to 243 °C
- IC50 [1]: < 500 nM

Compound: Cc1cnc2c(C#N)c(-c3ccc(S(=O)(=O)NC4(C)CC4)cn3)n(C3CCCC3)c2c1 [Cpd 174, 6-(3-cyano-1-cyclopentyl-6-methyl-1H-pyrrolo[3,2-b]pyridin-2-yl)-N-(1-methylcyclopropyl)pyridine-3-sulfonamide]
- melting point: 215 to 217 °C
- IC50 [1]: < 500 nM

Compound: C[C@@H](NS(=O)(=O)c1ccc(-c2c(C(N)=O)c3cc(C(F)(F)F)cnc3n2C2CCCCC2)cc1)C(F)(F)F [Cpd 444, 1-cyclohexyl-5-(trifluoromethyl)-2-(4-{[(2R)-1,1,1-trifluoropropan-2-yl]sulfamoyl}phenyl)-1H-pyrrolo[2,3-b]pyridine-3-carboxamide]
- melting point: 285 to 287 °C
- IC50 [1]: < 500 nM

Compound: Cc1ccc2c(C#N)c(-c3ncc(S(=O)(=O)NC4(C)CC4)cn3)n(C3CCC3)c2n1 [Cpd 144, 2-(3-cyano-1-cyclobutyl-6-methyl-1H-pyrrolo[2,3-b]pyridin-2-yl)-N-(1-methylcyclopropyl)pyrimidine-5-sulfonamide]
- melting point: 224 to 232 °C
- IC50 [1]: < 500 nM

Compound: CSc1cnc2c(c1)c(C#N)c(-c1ccc(S(=O)(=O)NC3(C(F)(F)F)CC3)cc1)n2C1CCC1 [Cpd 364, 4-[3-cyano-1-cyclobutyl-5-(methylsulfanyl)-1H-pyrrolo[2,3-b]pyridin-2-yl]-N-[1-(trifluoromethyl)cyclopropyl]benzenesulfonamide]
- melting point: 197 to 199 °C
- IC50 [1]: < 500 nM

Compound: CC(C)S(=O)(=O)Nc1ccc(-c2c(C#N)c3cc(C(F)(F)F)cnc3n2C2CCCCC2)cc1 [Cpd 425, N-{4-[3-cyano-1-cyclohexyl-5-(trifluoromethyl)-1H-pyrrolo[2,3-b]pyridin-2-yl]phenyl}propane-2-sulfonamide]
- melting point: 228 to 230 °C
- IC50 [1]: < 500 nM

Compound: Cc1cnc2c(c1)c(C#N)c(-c1ncc(S(=O)(=O)N[C@@H](C)C(F)(F)F)cn1)n2C1CCC1 [Cpd 71, 2-(3-cyano-1-cyclobutyl-5-methyl-1H-pyrrolo[2,3-b]pyridin-2-yl)-N-[(2S)-1,1,1-trifluoropropan-2-yl]pyrimidine-5-sulfonamide]
- melting point: 186 to 188 °C
- IC50 [1]: < 500 nM

Compound: CC(C)(C)NS(=O)(=O)c1ccc(-c2c(C(N)=O)c3cc(C(F)(F)F)cnc3n2C2CCCCC2)cc1 [Cpd 443, 2-[4-(tert-butylsulfamoyl)phenyl]-1-cyclohexyl-5-(trifluoromethyl)-1H-pyrrolo[2,3-b]pyridine-3-carboxamide]
- melting point: 290 to 292 °C
- IC50 [1]: < 500 nM

Compound: Cc1cc2c(cn1)c(C#N)c(-c1ccc(S(=O)(=O)N[C@@H](C)C(F)(F)F)cc1)n2C1CCC1 [Cpd 30, 4-(3-cyano-1-cyclobutyl-6-methyl-1H-pyrrolo[3,2-c]pyridin-2-yl)-N-[(2S)-1,1,1-trifluoropropan-2-yl]benzenesulfonamide]
- melting point: 248 to 249 °C
- IC50 [1]: < 500 nM

Compound: CCc1cnc2c(c1)c(C(N)=O)c(-c1ccc(S(=O)(=O)N[C@@H](C)C(F)(F)F)cn1)n2C1CCC1 [Cpd 377, 1-cyclobutyl-5-ethyl-2-(5-{[(2S)-1,1,1-trifluoropropan-2-yl]sulfamoyl}pyridin-2-yl)-1H-pyrrolo[2,3-b]pyridine-3-carboxamide]
- melting point: 236 to 240 °C
- IC50 [1]: < 500 nM

Compound: Cc1cnc2c(c1)c(C#N)c(-c1ccc(S(=O)(=O)N[C@@H](C)C(F)(F)F)cn1)n2-c1cccnn1 [Cpd 383, 6-[3-cyano-5-methyl-1-(pyridazin-3-yl)-1H-pyrrolo[2,3-b]pyridin-2-yl]-N-[(2S)-1,1,1-trifluoropropan-2-yl]pyridine-3-sulfonamide]
- melting point: 150 to 153 °C
- IC50 [1]: < 500 nM

Compound: Cc1cnc2c(C#N)c(-c3ccc(S(=O)(=O)NC4(C(F)(F)F)CC4)cn3)n(C3CCCC3)c2c1 [Cpd 172, 6-(3-cyano-1-cyclopentyl-6-methyl-1H-pyrrolo[3,2-b]pyridin-2-yl)-N-[1-(trifluoromethyl)cyclopropyl]pyridine-3-sulfonamide]
- melting point: 249 to 251 °C
- IC50 [1]: < 500 nM

Compound: C[C@H](NS(=O)(=O)c1ccc(-c2c(C#N)c3cc(F)cnc3n2-c2ncccn2)nc1)C(F)(F)F [Cpd 320, 6-[3-cyano-5-fluoro-1-(pyrimidin-2-yl)-1H-pyrrolo[2,3-b]pyridin-2-yl]-N-[(2S)-1,1,1-trifluoropropan-2-yl]pyridine-3-sulfonamide]
- melting point: 171 to 173 °C
- IC50 [1]: < 500 nM

Compound: CCc1cnc2c(c1)c(C#N)c(-c1ccc(S(=O)(=O)N[C@@H](C)C(F)(F)F)cn1)n2-c1cnccn1 [Cpd 411, 6-[3-cyano-5-ethyl-1-(pyrazin-2-yl)-1H-pyrrolo[2,3-b]pyridin-2-yl]-N-[(2S)-1,1,1-trifluoropropan-2-yl]pyridine-3-sulfonamide]
- melting point: 195 to 200 °C
- IC50 [1]: < 500 nM

Compound: COc1ccc2c(C#N)c(-c3ccc(S(=O)(=O)N[C@@H](C)C(F)(F)F)cn3)n(C3CCC3)c2n1 [Cpd 40, 6-(3-cyano-1-cyclobutyl-6-methoxy-1H-pyrrolo[2,3-b]pyridin-2-yl)-N-[(2S)-1,1,1-trifluoropropan-2-yl]pyridine-3-sulfonamide]
- melting point: 193 to 194 °C
- IC50 [1]: 500 to 2000 nM
